Assay results published in US20200360391A1, “Medicinal Composition for Treating Intractable Heart Disease” (Osaka University, priority 2016, published 2020).
Like-named read-outs stand apart in the source and are kept apart here.

What was measured:
[1] = system: mouse model of pulmonary embolism; settings: oral pre-administration, cited from earlier work
rats [2] = assay: Repeated oral administration toxicity study in rats (dose-setting basis); settings: mg/kg twice per day, oral preparation
Text: The dose-setting basis for the doses of the test substances used in pharmacological tests is as described below.

[3] = system: rat coronary artery complete ischemia model; assay: Model of ischemia (MI) by rat coronary artery complete ligation (Tests 1 and 2): echocardiography, body weight; settings: for value of change in E.F. compared with E.F. on Day 1 / value of change in F.S. compared with F.S. on Day 1: B-MS 100, C-MS 50, F-MS 30 mg/kg s.c. single injection
[4] = system: spontaneous dilated cardiomyopathy (J2N-k) hamster model; assay: Spontaneous dilated cardiomyopathy (J2N-k) hamster model, 8-week administration from 20 weeks of age (Tests 1-3): echocardiography, body weight; settings: for Minimal effective dose (screening 2): mg/kg twice per day, oral preparation
Procedure: The doses of pharmaceutical products were determined based on the no-observed-adverse-effect levels in a long-term toxicity study using rats. δ-Glycan-deficient spontaneous dilated cardiomyopathy (J2N-k) male hamsters (Japan SLC, Inc.) were delivered at 18 weeks of age. After a 2-week quarantine/acclimation, echocardiography was performed.
Each of the pharmaceutical products (A to K and O) was individually administered twice daily (at an interval of 8 hours or more) by oral gavage, and echocardiography was performed after 4 and 8 weeks (before dissection). Differences from the value before the start of administration (at the time of grouping) (amount of change: Δ) in each group were examined, and the cardiac function (EF value, FS %, etc.) was compared with that in the vehicle group (Group 1). Moreover, the heart was removed […] after the start of administration, and electron microscopy and RNA protein measurement were performed. Specimens for immunopathology were also collected and evaluated.
Each pharmaceutical product was individually suspended in 0.5% CMC-Na (sodium carboxymethylcellulose; Wako Pure Chemical Industries, Ltd.) before use, and administered. […] To Group 1 (control), 0.5% CNC-Na (vehicle) was administered.
Each pharmaceutical product was individually suspended in 0.5% CMC-Na (sodium carboxymethylcellulose; Wako Pure Chemical Industries, Ltd.) before use, and administered. Test substance G was suspended in distilled water before use, and administered.
Reason the doses were set (assuming that the adult body weight was 60 kg, the same amounts as the maximum clinical doses were set) • 1) The clinical dose of C (ozagrel; OZ) was 200 mg twice per day. The dose was thus set to 3.3 mg/kg twice per day. • 2) The clinical dose of D (cilostazol; CS) was 100 mg twice per day. The dose was thus set to 1.7 mg/kg twice per day. • 3) The clinical dose of E (pirfenidone; PF) was 600 mg three times per day, i.e., 1800 mg/day in total. The dose was thus set to 15 mg/kg twice per day. • 4) The clinical dose of G (nintedanib sulfonate; OB) was 150 mg twice per day. The dose was thus set to 2.5 mg/kg twice per day. • 5) The clinical dose of P (carvedilol; CV) was 10 mg twice per day. The dose was thus set to 0.17 mg/kg twice per day. • 6) Preparation 2 (PLGA⋅MS preparation of camostat; B⋅MS): the clinical dose of active substance camostat was 200 mg three times per day, i.e., 600 mg/day in total; thus, intermittent subcutaneous administration at a daily dose of 10 mg/kg once every 4 weeks, twice in total was set. The dose was 1/28 of the total oral dose amount.
The dose volume in oral administration was 5 mL/kg (the amount of liquid to be administered to each animal was calculated based on the most recent body weight), and administered by oral gavage using a polypropylene disposable syringe and a rat stomach tube.
The administration period of each pharmaceutical product was 8 weeks.

[5] = cited from earlier work
rats [6] = settings: rats, cited from earlier work
[7] = system: mice with ethionine-induced pancreatitis; settings: oral, twice daily; cited from earlier work
rats [8] = settings: rat, in vivo, sc; cited from earlier work
[9] = system: spontaneously hypertensive rats (SHR); settings: oral 0.1, 1 and 10 mg/kg for 2 weeks; cited from earlier work
[10] = system: spontaneous dilated cardiomyopathy (J2N-k) hamster model; assay: Long-term (36 weeks) administration in J2N-k hamster model: cardiac function, survival rate; type: in vivo; settings: 3.0 mg/kg
Procedure: ONO-1301 and (K) candesartan, which is ARB, were each individually orally administered to a δ-glycan-deficient spontaneous dilated cardiomyopathy (J2N-k) hamster model twice daily repeatedly for 36 weeks, after the onset of pathological condition (20 weeks old); and changes in cardiac function and survival rates in long-term administration were compared for evaluation. Specifically, echocardiographic measurement was performed after the onset of pathological condition (20 weeks old); the animals were grouped evenly based on the ejection fractions (EF values) and the body weights (Table 15), and each test substance was individually administered for 36 weeks.
The test was performed in the same manner as described in the section “1. Investigation of effects in spontaneous dilated cardiomyopathy (J2N-k) hamster model” above.
ONO-1301 was administered at 3 mg/kg twice per day. Candesartan was administered at 3 mg/kg once per day, and only vehicle was administered at the second administration. To the control group, vehicle (0.5% CMC-Na) was administered twice daily.

dogs = settings: 6-month toxicity study in dogs; cited from earlier work
[11] = MI Test 1, NOAEL doses, 7 Day, mean ± S.D.
[12] = MI Test 1, NOAEL doses, 14 Day, mean ± S.D.
[13] = MI Test 1, NOAEL doses, 29 Day, mean ± S.D.
[14] = Test 1, p.o. b.i.d., NOAEL-based dose
[15] = MI Test 2, 14 Day, B 150, G 5, I 30, C 10 mg/kg p.o. b.i.d., mean ± S.D.
[16] = MI Test 2, 29 Day, B 150, G 5, I 30, C 10 mg/kg p.o. b.i.d., mean ± S.D.

O=C1CCc2cc(OCCCCc3nnnn3C3CCCCC3)ccc2N1 [Compound D, Cilostazol]
Dose significantly inhibiting pulmonary embolus death ([1]; ADP-induced model): 30 mg/kg
Dose significantly inhibiting pulmonary embolus death ([1]; collagen-induced model): 10 mg/kg
Maximum no-observed-adverse-effect level (screening 1) (rats [2]): 30 mg/kg
Action on left ventricular systolic function ([3]; MI Test 1, 28-day repeated oral administration b.i.d., NOAEL-based doses): suppression action on the deterioration of left ventricular systolic function
Cardiac function test (% FS): actual measured EF value compared with control ([3]; MI Test 1, Day 7): significantly higher
Cardiac function test (% FS): amount of change in the EF value compared with control ([3]; MI Test 1, Day 7): not significantly higher
EF actual measured value compared with control ([3]; MI Test 1, Day 7): significantly higher
EF amount of change compared with control ([3]; MI Test 1, Day 7): not significantly higher
Cardiac function test (% FS): amount of change compared with control ([3]; MI Test 1, Day 29): significantly higher
Body weight ([3]; MI Test 1, NOAEL doses, 1 Day (grouping), mean ± S.D.): 232.4 ± 4.9 g
% FS: value of change compared with the value on Day 1 [3, 11]: -1%
EF: value of change compared with the value on Day 1 [3, 11]: -1%
% FS: value of change compared with the value on Day 1 [3, 12]: -2%
EF: value of change compared with the value on Day 1 [3, 12]: -3%
% FS: value of change compared with the value on Day 1 [3, 13]: -5%
EF: value of change compared with the value on Day 1 [3, 13]: -9%
LVIDd 4 W ([4]; Test 1, p.o. b.i.d.): 7.1 mm
LVIDd 8 W ([4]; Test 1, p.o. b.i.d.): 7.5 mm
LVIDs 4 W ([4]; Test 1, p.o. b.i.d.): 5.9 mm
LVIDs 8 W ([4]; Test 1, p.o. b.i.d.): 6.3 mm
Body weight 1 W [4, 14]: 112.6 g
Body weight 2 W [4, 14]: 114.6 g
Body weight 3 W [4, 14]: 116.6 g
Body weight 4 W [4, 14]: 118.0 g
Body weight 5 W [4, 14]: 118.5 g
Cardiac function (EF, FS %) actual measured value and/or amount of change compared with control, 8 W value ([4]; Test 3, clinical dose): significant cardiac function improvement effect
Cardiac function (EF, FS %) actual measured value or change rate compared with control, 4 W value ([4]; Test 3, clinical dose): significant cardiac function improvement effect
Cardiac function improvement effect ([4]; Test 3, clinical dose, summary): cardiac function improvement effect was observed
Minimal effective dose (screening 2) [4]: 1.7 mg/kg
Diarrhea cases ([5]; human, in vivo): 0.3%
Dizziness ([5]; human, in vivo): 0.5%
Headache (headache/heavy-headedness) cases ([5]; human, in vivo): 3.4%
Nausea cases (cilostazol: nausea/vomiting) ([5]; human, in vivo): 0.3%
Palpitations cases ([5]; human, in vivo): 0.7%
Cases with side effects (including laboratory test value abnormality) ([5]; share of cases evaluated for safety): 6.3%
No-observed-adverse-effect level (rats [6]; 13 weeks / 3 months): 30 mg/kg

CN(C)C(=O)COC(=O)Cc1ccc(OC(=O)c2ccc(NC(=N)N)cc2)cc1 [Compound B, Camostat mesilate]
Maximum no-observed-adverse-effect level (screening 1) (rats [2]): 150 mg/kg
EF actual measured value and/or amount of change compared with control ([3]; MI Test 2, Day 14 and Day 29): significantly higher
Values of cardiac function (EF, FS %) compared with control ([3]; MI Test 2, oral b.i.d. 4 weeks or single subcutaneous administration): significantly higher
Body weight ([3]; MI Test 2, 1 Day, B 150, G 5, I 30, C 10 mg/kg p.o. b.i.d., B MS 100, C MS 50, I MS 30 mg/kg s.c. single injection, mean): 243.5 g
Body weight ([3]; MI Test 2, 7 Day, B 150, G 5, I 30, C 10 mg/kg p.o. b.i.d., B MS 100, C MS 50, I MS 30 mg/kg s.c. single injection, mean): 249.1 g
Body weight ([3]; MI Test 2, 14 Day, B 150, G 5, I 30, C 10 mg/kg p.o. b.i.d., B MS 100, C MS 50, I MS 30 mg/kg s.c. single injection, mean): 262.4 g
value of change in E.F. compared with E.F. on Day 1 [3, 15]: <−4.2 ± 2.5> %
value of change in F.S. compared with F.S. on Day 1 [3, 15]: <−2.3 ± 5.3> %
Body weight ([3]; MI Test 2, 21 Day, B 150, G 5, I 30, C 10 mg/kg p.o. b.i.d., B MS 100, C MS 50, I MS 30 mg/kg s.c. single injection, mean): 273.9 g
Body weight ([3]; MI Test 2, 29 Day, B 150, G 5, I 30, C 10 mg/kg p.o. b.i.d., B MS 100, C MS 50, I MS 30 mg/kg s.c. single injection, mean): 293.5 g
value of change in E.F. compared with E.F. on Day 1 [3, 16]: <−7.3 ± 4.2> %
value of change in F.S. compared with F.S. on Day 1 [3, 16]: <−3.9 ± 2.2> %
Dose suppressing increase in protease activity in the pancreas [7]: 300 mg/kg
LVIDd 4 W ([4]; Test 1, p.o. b.i.d.): 6.8 mm
LVIDd 8 W ([4]; Test 1, p.o. b.i.d.): 7.3 mm
LVIDs 4 W ([4]; Test 1, p.o. b.i.d.): 5.6 mm
LVIDs 8 W ([4]; Test 1, p.o. b.i.d.): 6.1 mm
LVIDs 8 W ([4]; Test 1, p.o. b.i.d., listed as camostat): significantly lower
Body weight 1 W ([4]; hamster, in vivo, po): 114.4 g
Body weight 2 W ([4]; hamster, in vivo, po): 117.7 g
Body weight 3 W ([4]; hamster, in vivo, po): 119.0 g
Body weight 4 W ([4]; hamster, in vivo, po): 121.3 g
Body weight 5 W ([4]; hamster, in vivo, po): 121.9 g
Body weight 6 W ([4]; hamster, in vivo, po): 122.2 g
Minimal effective dose (screening 2) [4]: 5 mg/kg
LD50 (rats [8]): 1329 mg/kg

CCOc1nc2cccc(C(=O)OC(C)OC(=O)OC3CCCCC3)c2n1Cc1ccc(-c2ccccc2-c2nn[nH]n2)cc1 (stereo not drawn) [candesartan, Candesartan cilexetil]
Blood pressure [9]: reduced blood pressure
Plasma renin concentration [9]: increased the plasma renin concentration in a dose-dependent manner
EF compared with control group [10]: no longer significant in Week 30 and Week 36
FS% compared with control group [10]: no longer significant in Week 36
Survival rate [10]: rapid decrease in the survival rate was observed from 29 weeks
No-observed-adverse-effect level (rats [6]; 6 months): 10 mg/kg
No-observed-adverse-effect level (dogs): 20 mg/kg
